Target: T1, Cyr61 (Homo sapiens, UniProt O00622)
T1 construct: gene CCN1; Cyr61 protein (Mammalian, C-Fc)
T1 sequence (O00622 25-381): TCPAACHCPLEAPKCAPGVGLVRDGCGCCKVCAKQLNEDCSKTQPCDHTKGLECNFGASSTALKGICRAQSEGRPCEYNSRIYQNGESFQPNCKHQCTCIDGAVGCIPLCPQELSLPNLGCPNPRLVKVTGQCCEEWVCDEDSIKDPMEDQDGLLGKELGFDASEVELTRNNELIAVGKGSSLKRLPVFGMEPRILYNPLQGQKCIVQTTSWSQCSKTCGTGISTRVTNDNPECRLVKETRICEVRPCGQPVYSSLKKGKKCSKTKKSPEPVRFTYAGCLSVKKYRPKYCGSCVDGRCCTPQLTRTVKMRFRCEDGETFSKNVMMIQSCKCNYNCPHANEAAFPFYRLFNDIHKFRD
Assay: Microscale thermophoresis with RED-NHS labelled recombinant Cyr61; supported by DARTS and CETSA in HeLa cells
Type: binding

- Kd: 3.8 ± 4.5 µM
SMILES: CC(=O)O[C@@H]1C[C@@H](C)[C@](O)(CCc2ccoc2)[C@@]2(C)CCCC(C)(C)[C@H]12 [RTF, Rotundifuran]
